For assay [1], the system named is HUVECs challenged with oxLDL. Kind of assay: NO and ONOO− release from HUVECs pretreated with agents, then oxLDL (Example 11, Objective 1). The format is cell-based, human. The note with it: pretreated 30 min at 10 μM, then oxLDL 11 mg/dL up to 3 hr, calcium ionophore 1.0 μM. How it is done: The omega-3 fatty acid, cis-5,8,11,14,17-eicosapentaenoic acid (EPA) and docosahexaenoic acid (DHA) were purchased from Sigma-Aldrich (Saint Louis, Mo.) and solubilized in redistilled ethanol to 11 mM under nitrogen atmosphere. EPA and DHA stock solutions were stored at −20° C. until use.
Human umbilical vein endothelial cells (HUVECs) were obtained from healthy, female donors and isolated into primary, proliferating cell cultures (Clonetics, San Diego, Calif.). […] The confluent cells (4 to 5×10^5 cells/35 mm dish) were plated with minimum essential medium containing 3 mM L-arginine and 0.1 mM BH4 [(6R)-5,6,7,8-tetrahydrobiopterin]. Before experimental use, the cells (from second or third passage) were rinsed twice with Tyrode-HEPES buffer with 1.8 mM CaCl2. […]
LDL underwent oxidation following the addition of 10 μM CuSO4. […] Sample TBARS concentrations were determined spectrophotometrically by measuring sample absorbances against a standard curve derived from the hydrolysis of 1,1,3,3-tetramethoxypropane. […]
The amperometric method (with a response time of 0.1 ms) provides a quantitative signal (current) that is directly proportional to changes (from basal levels) in NO or ONOO^− concentration. […] Basal NO or ONOO^− levels were measured by differential pulse voltammetry in separate experiments. […]
NO and ONOO^− release were measured following stimulation with calcium.

The nature of assay [2]: Small angle x-ray diffraction of glucose-treated model membranes, cholesterol domain peak intensity (Example 4). The format is physicochemical. The note with it: 96-hour time point; vs vehicle or vitamin E treatments; 1:30; glucose 200 mg/dL. The procedure:
After centrifugal orientation, sample supernatants were aspirated and aluminum foil substrates, each supporting a single membrane pellet, were removed from the sedimentation cells. […] All x-ray diffraction experiments were conducted at 20° C., 74% relative humidity.
Oriented membrane samples were aligned at grazing incidence with respect to a collimated, mono-chromatic CuKα x-ray beam (Kα1 and Kα2 unresolved; λ=1.54 Å) produced by a Rigaku Rotaflex RU-200, high-brilliance microfocus generator (Rigaku-MSC, The Woodlands, Tex.) as previously described (Mason et al., Biophys. J., vol. 55(4), pages 769-778 (1989)).
Routines written in Origin 8.6 (OriginLab Corporation, Northampton, Mass.) were used to determine total peak area (associated with all diffraction peaks in a given pattern) against which the second-order cholesterol domain peak was normalized.

Assay [3] can be described thus: Glucose-induced membrane lipid peroxidation (LOOH) in multilamellar vesicles, CHOD-iodide assay (Example 4). To be noted: for inhibited the peroxidative effects of glucose (LOOH formation): vs glucose alone. The format is biochemical. How it is done: Vitamin E (α-tocopherol) was also purchased from Sigma-Aldrich and prepared in ethanol at 1.0 mM (ε=3.06×10^4 M^−1 cm^−1 at 294 nm) just prior to experimental use. […] All test compounds were further diluted in ethanol or aqueous buffer as needed. Glucose was prepared in saline buffer (0.5 mM HEPES, 154 mM NaCl, pH 7.3) at 11.0 mM (200 mg/dL). CHOD-iodide color reagent (stock) was prepared, with slight modification, as described by from El-Saadani et al. (J. […] Samples were shell-dried under nitrogen gas and placed under vacuum for 1 h to remove residual solvent. […] Lipid suspensions were then vortexed for 3 min at ambient temperature to form MLVs. All MLV samples were subjected to time-dependent autoxidation by incubating at 37° C. in an uncovered, shaking water bath. This method allows lipid peroxidation to occur gradually without requiring the use of exogenous initiators. Small aliquots (5-100 μL) of each sample were removed, immediately following MLV preparation (0 hour) and after exposing samples to oxidative conditions for 72 or 96 hour, and combined with 1.0 mL of activated CHOD-iodide color reagent. Aliquot volume was reduced with each successive time point to ensure that spectrophotometric readings were within the optimal adsorption range. Test samples were covered and incubated in darkness at room temperature for at least 4 hr. Sample absorbances were then measured against a CHOD blank at 365 nm using a Beckman DU-640 spectrophotometer. The CHOD colorimetric assay is based on the oxidation of iodide (I^−) by lipid hydroperoxide (LOOH) to form triiodide (I3^−), the quantity of which is directly proportional to the amount of LOOH present in the lipid sample. The molar absorptivity (E) of I3^− is 2.46×10^4 M^−1 cm^−1 at 365 nm. […] The concentration of glucose selected was consistent with previous experimental studies of hyperglycemia under controlled laboratory conditions or observed in well-defined animal models of Type II diabetes following a glucose challenge. […] Values in FIG. 1 are mean±S.D. (N=6). EPA inhibited the peroxidative effects of glucose by 88% and 86% at 72 and 96 hours, respectively, which was highly significant (p<0.001) as compared to glucose treatment alone. […] Overall ANOVA-0 hour data: p=0.6655, F=0.4185; 72 hour data: p<0.0001, F=428.72; 96 hour data: p<0.0001, F=322.01.

Structures are written as SMILES.

Consider `O=C(O)c1cccnc1` [niacin, nicotinic acid], for which the “NO/ONOO− Ratio” value in assay [1] was found to be 1.45±0.14; in assay [1] (listed as Niacin), 1.45 ± 0.14.

For `CC/C=C\C/C=C\C/C=C\C/C=C\C/C=C\CCCC(=O)O` [EPA, cis-5,8,11,14,17-eicosapentaenoic acid], the “inhibited relative cholesterol domain peak intensity” value in assay [2] is recorded as “more than 99%”. Moreover, in assay [3] (72- and 96-hour time points, 1:30 drug-to-phospholipid mole ratio, glucose), the “effect on LOOH formation / lipid peroxidation” value was “significantly inhibited LOOH formation”. For the same compound, the “inhibited the peroxidative effects of glucose (LOOH formation)” value in assay [3] (72 hours, glucose 200 mg/dL, 1:30 drug-to-phospholipid mole ratio) is reported as 88%; in assay [3] (96 hours, glucose 200 mg/dL, 1:30 drug-to-phospholipid mole ratio) it was 86%. Besides, in assay [3] (each at 1.0 μM, glucose 200 mg/dL, 96 hours), the “antioxidant effects of separate treatments (LOOH formation)” value was “potent antioxidant effects”.

For the origin of these results see patent US20200237700A1, “METHODS OF REDUCING OR PREVENTING OXIDATION OF SMALL DENSE LDL OR MEMBRANE POLYUNSATURATED FATTY ACIDS” (Amarin Pharmaceuticals Ireland Limited, priority 2015, published 2020).
